In patent publication US12194081B2, “ARGINASE1 polypeptides” (IO BIOTECH APS, priority 2018, dated 2025):

Tested on: PBMCs from cancer patients and healthy donors
Experiment: in vitro IFNγ ELISPOT of PBMCs after 7 days with peptide and IL-2
Type: cell-based, human
Settings: for cancer patients showing responses in IFNγ ELISPOT: out of 16 cancer patients (8 melanoma, 6 multiple myeloma, 1 breast cancer, 1 renal cell carcinoma); for cancer patients showing responses in IFNγ ELISPOT / healthy donors showing responses in IFNγ ELISPOT: strong responses counted for ArgLong2, FIG. 2; for healthy donors showing responses in IFNγ ELISPOT: out of 19 healthy donors; for responses in IFNγ ELISPOT (in words): PBMCs from 6 healthy donors, peptide and low dose IL-2 for 1 week, FIG. 1
Method: PBMCs from healthy donors were isolated using density gradient separation over LymphoprepTM (STEMCELL Technologies) and cryopreserved at -150° C. in FBS supplemented with 10% DMSO. PBMCs from cancer patients were isolated from blood sample a minimum of four weeks after the termination of any anti-cancer therapy. The protocol was approved by the Scientific Ethics Committee for The Capital Region of Denmark and conducted in accordance with the provisions of the Declaration of Helsinki. Written informed consent from the patients was obtained before study entry. […] The sequences of the peptides used in these experiments are shown in full below in alignment with each other, and are also set out in the section entitled “Sequences”). Peptides are described by SEQ ID NO, by name, or by reference to the start and end positions of each peptide sequence within the full length sequence of Arginase 1. Each may be used interchangeably. For example, the peptide of SEQ ID NO: 1 may alternatively be referred to by the name ArgLong2, or may alternatively be referred to as […]-206 (given a start position of 169 and end position of 206). The intended reference in each case will be clear from the context. For in vitro ELISPOT, PBMCs from cancer patients and healthy donors were pulsed with 20 μM of Arginase 1-derived peptides and 120 U/ml IL-2 in 24-well plates for 7 days before being used in an ELISPOT assay. The cells were placed in 96-well nitrocellulose ELISPOT plates (MultiScreen MAIP […]; Millipore) pre-coated with IFNγ capture antibody (Mabtech). Arginase peptides added to a final concentration of 5 μM and plates incubated at 37° C. for 14-16 hours. After the incubation the cells were washed off and secondary biotinylated Ab (Mabtech, cat. 3420-6-1000) was added for 2 hours at room temperature. Unbound secondary antibody was washed off and streptavidin conjugated alkaline phosphatase (AP) (Mabtech, cat. 3310-10) was added for 1 hour at room temperature. Unbound conjugated enzyme was washed off and the assay was developed by adding BCIP/NBT substrate (Mabtech, cat. 3650-10). Developed ELISPOT plates were analyzed on CTL ImmunoSpot S6 Ultimate-V analyzer using Immunospot software v5.1. Responses were reported as the difference between average numbers of spots in wells stimulated with Arginase 1 and wells without added peptide.

Sequence | cancer patients showing responses in IFNγ ELISPOT [cancer patients] | healthy donors showing responses in IFNγ ELISPOT [healthy donors] | responses in IFNγ ELISPOT (in words)
AKDIVYIGLRDVDPGEHYIL (Peptide fragment of human Arginase 1 (Arg1-18)) [Arg171-190, previously described 20-mer Arginase 1 peptide (WO2018065563), reference compound] | 3 | 3 | 
DVDPGEHYILKTLGIKYFSM (Peptide fragment of human Arginase 1 (Arg1-19)) [Arg181-200, previously described 20-mer Arginase 1 peptide (WO2018065563), reference compound] | 6 | 4 | 
ISAKDIVYIGLRDVDPGEHYILKTLGIKYFSM (Peptide fragment of human Arginase 1 (ArgLong3)) [32-mer, positions 169-200 of full length human Arginase 1] |  |  | low or no responses
ISAKDIVYIGLRDVDPGEHYILKTLGIKYFSMTEVDRLGIGK (Peptide fragment of human Arginase 1 (ArgLong)) [42-mer, positions 169-210 of full length human Arginase 1] |  |  | low or no responses
KTLGIKYFSMTEVDRLGIGK (Peptide fragment of human Arginase 1 (Arg1-20)) [Arg191-210, previously described 20-mer Arginase 1 peptide (WO2018065563), reference compound] | 3 | 7 | 
